The record followed here is US20240139167A1, “LYSOSOME-ASSOCIATED MEMBRANE PROTEIN TARGETING COMPOUNDS AND USES THEREOF” (HADASIT MEDICAL RESEARCH SERVICES AND DEVELOPMENT LTD., priority 2021, published 2024).

What all share (assay type): cell-based, human
The test system of experiment [1] is HC and APBD patient skin fibroblasts. As to the kind of experiment: Seahorse ATP Rate Assay under glycogen burden. As for the experimental part: FIGS. 4A-4D include a bar graph of PAS staining for total glycogen in skin fibroblasts from different APBD patients (4A), images of PAS staining for total glycogen in APBD87 fibroblasts glucose-starved for 48 h (left), or glucose starved and then replenished for the last 24 h to induce glycogen burden (right) (4B), image acquisition was done by Nikon Eclipse Ti2 microscope using a 40×PlanFluor objective and CY3 filter; graph of image-based multiparametric phenotyping of APBD fibroblasts under 48 h glucose-starvation, or starvation and glucose replenishment as in 4B (4C), level of significance p=0.01; and bar graph of glycolytic and mitochondrial ATP production determined by Agilent's Seahorse machine and ATP rate assay kit (4D). Healthy control (HC) and APBD patient fibroblasts were untreated or treated with 10 μM Compound 1 for 48 h (chronic), or on assay for 20 min (acute). Readings were normalized to cell number as determined by Crystal Violet staining. Shown are mean and SD values based on n=6 repeats.
The RQ shift towards carbohydrate catabolism observed in vivo prompted the inventors to investigate whether carbohydrate catabolism is also up-modulated intracellularly. To that end, and especially since glycogen levels are highly versatile among fibroblasts derived from different APBD patients (FIG. 4A), the inventors first aimed at inducing a physiological glycogen overload, or glycogen burden condition, equivalent to the one found in tissues. […] Therefore, the inventors selected this glycogen burden condition to analyze catabolism at a cell level using an ATP Rate Assay (Agilent's Seahorse ATP Rate Assay). The results

Experiment [2] relates to LAMP1-KD and control APBD fibroblasts. As to the kind of experiment: ATP Rate Assay in LAMP1-KD and control cells. The text has this:
(§1) FIGS. 6A-6E include bar graphs of autophagic flux, determined by the extent of lysosomal inhibitors-dependent increase in the ratio of lipidated to non-lipidated LC3 (LC3II/LC3I) (6A); representative TEM images of liver tissue from 9.5 month old Gbe^ys/ys mice treated with Compound 11, or 5% DMSO vehicle (6B), G: Glycogen (alpha particles) and polyglucosan (structures with variable electron densities), L: Lysosomes, M: Mitochondria; right panel: lysosomal glycogen stain was quantified by ImageJ “count particle” tool; micrograph of LAMP1 knocked down and control APBD primary skin fibroblasts treated or not with Compound 1 and lysosomal inhibitors (LI) and quantification of 3 experiments and results of Student's t-tests. *, p<0.1; **, p<0.05; ***, p<0.01 (6C); graphs of lysosomal pH changes determined in APBD primary fibroblasts transduced with lentiviruses encoding for GFP or GFP-shLAMP1 and treated or not with Compound 1 for 24 h and confocal microscope images of cells treated with Lysosensor and stained for PAS (6D); and bar graph of ATP production rate assay in LAMP1-KD and GFP (Control) cells treated for 24 h (chronic) or on assay (acute) with Compound 1 (6E).
To test the effect of LAMP1-KD and Compound 1 on fuel utilization, the inventors again used the ATP Rate Assay (FIGS. 4A-4D) in LAMP1-KD and control APBD fibroblasts acutely or chronically treated with Compound 1.

Experiment [3] relates to skin fibroblasts derived from Gsd1a patients. Kind of experiment: NAD+/NADH ratio, Sirt1 and p62 expression. The note with it: 50 μM, 24 h. As for the experimental part:
FIG. 21 includes vertical bar graphs showing skin fibroblasts derived from Gsd1a patients were treated with solvent or 50 μM Compound A for 24 h and analyzed for NAD+/NADH ratio by the Promega kit (left panel) and for Sirt1 (middle panel) and p62 (right panel) expression by western immunoblotting.
NAD+ and NADH are key precursors for the electron transfer chain, TCA cycle, glycolysis, amino acid synthesis, fatty acid synthesis, and nucleotide synthesis. The NAD+/NADH ratio reports the extent of overall catabolism and the balance between glycolysis and OxPhos. The increase in the NAD+/NADH ratio means acceleration of electron flow in the mitochondrial electron transport chain (note, not mitochondrial ATP production) and of glycolysis to better manage metabolic demands. Furthermore, Sirt1 induction, often associated with increased NAD+/NADH ratio, is a well-documented and innovative anti-aging, calorie restriction-mimic and anti-cancer therapeutic strategy (see for example Hyun et al., (2020)). Thus, the results in Gsd1a cells (FIG. 21), showing induction of the NAD+/NADH ratio, as well as Sirt1, indicate that 144DG11 is a promising therapy for a plethora of different metabolic disorders, aging-related complications, and cancer.

The subject of experiment [4] is PD patient-derived skin fibroblasts. Kind of experiment: Autophagic flux in Pompe disease fibroblasts. The following applies: serum starved, 50 μM, 24 h. As for the experimental part:
FIG. 15 includes a micrograph and a vertical bar graph showing autophagic flux in PD patient-derived skin fibroblasts, serum starved and treated (or not) with 50 μM 144DG11 (indicated as comp. A).
144DG11 can activate autophagy in the lysosomal storage disease (LSD) Pompe disease (PD) in which autophagy is perturbed (FIG. 15). […] This ratio serves as the most accepted marker for autophagy and autophagic flux. […] These observations indicate that, as in the GSD APBD, 144DG11 can activate autophagy also in the typical LSD PD in which autophagy is disturbed.

In experiment [5] the test system is LAMP1-KD and GFP control APBD primary fibroblasts. Kind of experiment: LAMP1 knockdown: autophagic flux, lysosomal pH (Lysosensor), PAS glycogen.
Description: as §1
To determine the functional importance of the interaction between Compound 1 and LAMP1, the inventors knocked down the latter using a lentiviral vector carrying GFP tagged shRNA against LAMP1. […] Furthermore, to test whether LAMP1-KD and Compound 1 enhanced autophagic flux by improving lysosomal function, the inventors quantified lysosomal acidification using the pH ratiometric dye Lysosensor™, which quantifies pH based on the yellow/blue emission ratio. […] The inventors show by flow cytometry (FIG. 6D, upper panel) the overall cellular acidification as an increase in 375 nm-excited yellow/blue emission, and by confocal microscopy that this acidification is associated with brighter yellow fluorescence in lysosomes (FIG. 6D, middle panel).

[6] abbreviates: both HC and APBD fibroblasts, glycogen burden.

Turning to `COCCN(Cc1sccc1C)C(=O)c1cc(C)nc(O)c1` [Compound 1], the “augmenting glycolytic contribution to ATP production: acute on assay supplementation vs 48 h pretreatment” value in experiment [1] is listed as “more effective”. For the same compound, in experiment [1] (setting [6]), the “overall ATP production” value was “increased”. In addition, in experiment [1] (setting [6]), the “relative contribution of glycolytic ATP production at the expense of mitochondrial (OxPhos) ATP production” value is given as “increased”. The ATP production entry in experiment [2] (LAMP1-KD cells, non-starved, chronic and acute) was “significantly increased total and respiratory ATP production”; in experiment [2] (LAMP1-KD cells, starved, acute) it was “increased both respiratory and glycolytic ATP”; in experiment [2] (LAMP1-KD cells, starved, chronic), “only respiratory ATP production increased”; in experiment [2] (control cells, non-starved), “only slightly influenced ATP production, and even acutely decreased it”; in experiment [2] (control cells, starved, acute) it was “only increased respiratory ATP production”; in experiment [2] (control cells, starved, chronic), “No significant effect”. In addition, in experiment [3], the “NAD+/NADH ratio” value is “induction”. In addition, the Sirt1 expression entry in experiment [3] is recorded as “induction”. In addition, the p62 expression entry in experiment [3] was “downmodulated”. In addition, in experiment [4], the “sensitivity to vinblastine (increase in the LC3II/LC3I ratio)” value is “increased”. The “autophagic flux in LAMP1 knocked down cells” value in experiment [5] (24 h serum starvation) is reported as “further enhanced”. The “lysosomal pH (Lysosensor)” value in experiment [5] (GFP and LAMP1-KD APBD cells, 24 h) is listed as “led to lysosomal acidification”. Also, the “reduction of cellular glycogen levels by LAMP knockdown (PAS)” value in experiment [5] (GFP control and shLAMP1-GFP transduced) is on record as “slightly enhanced”.
